Test results published in US8420308B2, “Methods and kits for diagnosis of schizophrenia” (Technion R&D Foundation Ltd., priority 2000, dated 2013).
Where two headings read alike, the source gives them in different places.

What was measured:
[1] = biological target: T1, complex I (Homo sapiens, UniProt P19404+P28331+P49821); test: Complex I driven respiration in SH-SY5Y cells; assay type: cell-based; design: endogenous in cells; host or cells: SH-SY5Y; conditions: for % Inhibition - complex I: 5 × 1O^−5 M; for % Inhibition - complex I / inhibition at 100 µM: means ± SD of 4-6 detections; for inhibition at 100 µM: 10^−4 M
Excerpt: (§1) The effect of antipsychotic drugs on respiration in SH-SY5Y cells was studied.

[2] = biological target: T2, complex II (Homo sapiens, UniProt O14521+P21912+P31040+Q99643); test: Complex II driven respiration in SH-SY5Y cells; assay type: cell-based; design: endogenous in cells; host or cells: SH-SY5Y; conditions: for inhibition at 50 µM: 5 × 10^−5 M; for inhibition at 50 µM / inhibition at 100 µM: means ± SD of 4-6 detections; for inhibition at 100 µM: 10^−4 M
Excerpt: as §1

[3] = biological target: T1, complex I; conditions: permeabilized cells, 37° C., 10 minutes of incubation; means±SD of 3 experiments
Description: (§2) Respiration rate was determined polarographically using a thermostatically controlled (37° C.) Clark oxygen electrode after 10 minutes of incubation. Respiration rates for each enzyme of the respiratory chain were assessed after the permeabilization of cellular membrane, with 0.001% digitonin followed by the addition of the following substrates and inhibitors: […] plus malate for complex I induced respiration; succinate, in the presence of rotenone and ATP for complex II induced respiration, and glycerol-3-phosphate, in the presence of rotenone. […] Results are means±SD of 3 experiments.

[4] = biological target: T2, complex II; conditions: succinate in the presence of rotenone and ATP
Description: as §2

[5] = biological target: complex III (Homo sapiens, UniProt P00156+P08574+P47985); conditions: glycerol-3-phosphate in the presence of rotenone, ATP and malonate
Description: as §2

[6] = tested on: EBV transformed lymphocytes
Description: Lymphocytes were isolated on Ficol and were centrifugated at 270 g for 10 minutes, the cell pellet was infected with 1 ml EBV at 37° C. for 1 h. The sample was then centrifuged at 270 g for 10 minutes to remove the EBV. The infected lymphocytes were-suspended in 5 ml of RPMI 1640 with 20% (v/v) FBS and 1% phytohemagglutinin (PHA) and incubated in a culture flask with culture medium replaced twice a week. Immortalized lymphocytes were then cryopreserved until use in liquid nitrogen.
Respiration was measured polarographically using a thermostatically controlled (37° C.) Clark oxygen electrode after 10 minutes of incubation. The respiration rates were assessed after the permeabilization of cellular membrane with 0.001% digitonin and the addition of glutamate+malate

[7] = biological target: T3, mitochondrial complex I (NADH ferricyanide reductase) (Homo sapiens, UniProt P19404+P28331+P49821); test: Dopamine inhibition of NADH-ferricyanide reductase (complex I) activity in platelet mitochondria; assay type: biochemical; conditions: platelet mitochondrial preparation
T3 construct: an enriched mitochondrial fraction was isolated on percoll as described previously; from tissue; host or cells: mitochondria-enriched fraction of blood platelets, disrupted by freeze-thaw or digitonin

[8] = biological target: T4, NADH CoQ reductase (complex I) (Homo sapiens, UniProt P19404+P28331+P49821); test: NADH-CoQ reductase activity in platelet mitochondria; assay type: biochemical; conditions: 10 μM rotenone; read-out: Residual activity of NADH CoQ reductase in the presence of rotenone
T4 construct: an enriched mitochondrial fraction was isolated on percoll as described previously; from tissue; host or cells: mitochondria-enriched fraction of blood platelets, disrupted by freeze-thaw or digitonin
Description: Blood (40-80 ml) was collected from the cubital vein without tourniquet between 8:00 and 10:00 a.m., mixed 9:1 with 3.8% (w/v) tri-sodium citrate, and platelet-rich plasma (PRP) separated at room temperature by centrifugation at 200×g for 20 min. Platelets were isolated and washed with Tyrode's buffer pH 7.4 containing 1 mM EDTA as described previously (Krige et al., 1992). The platelet pellet was gently resuspended in ice cold 10 mM Tris buffer pH 7.4 containing 250 mM sucrose and 1 mM EDTA and disrupted by a Dounce A homogenizer (20-30 strokes). The breakdown of the platelets was verified by light microscopy. The homogenate was centrifuged at 1000×g at 4° C. for 20 min to remove unbroken cells. The supernatant, containing the cytoplasmic extract was centrifuged at 12,000×g at 4° C. For 15 min and an enriched mitochondrial fraction was isolated on percoll as described previously (Ben-Shachar et al., 1995; Gavin et al., 1990; McComark and Denton, 1989). […] The final preparation was immediately stored at −70° C. until use.
Mitochondrial respiratory chain enzymes activity was assayed blindly and in triplicate after two cycles of freezing and thawing in a final volume of 1 ml at 25° C. by standard techniques. […]
Results from both assays for each sample are expressed as the difference between reductases activities in the absence and the presence of the relevant inhibitors.

T1 sequence (P49821 21-464): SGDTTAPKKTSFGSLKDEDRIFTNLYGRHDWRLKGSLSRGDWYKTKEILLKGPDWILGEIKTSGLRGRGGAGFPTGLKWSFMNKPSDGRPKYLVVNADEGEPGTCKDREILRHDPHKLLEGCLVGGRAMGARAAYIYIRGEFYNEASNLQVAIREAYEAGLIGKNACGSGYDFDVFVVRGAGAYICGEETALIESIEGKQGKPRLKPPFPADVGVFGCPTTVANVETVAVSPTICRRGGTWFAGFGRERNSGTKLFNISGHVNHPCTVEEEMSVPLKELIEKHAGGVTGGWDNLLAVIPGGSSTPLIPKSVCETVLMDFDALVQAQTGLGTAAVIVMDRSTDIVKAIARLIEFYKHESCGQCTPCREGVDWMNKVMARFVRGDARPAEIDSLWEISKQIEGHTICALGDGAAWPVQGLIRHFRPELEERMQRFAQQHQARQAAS
T1 sequence (P19404 33-249): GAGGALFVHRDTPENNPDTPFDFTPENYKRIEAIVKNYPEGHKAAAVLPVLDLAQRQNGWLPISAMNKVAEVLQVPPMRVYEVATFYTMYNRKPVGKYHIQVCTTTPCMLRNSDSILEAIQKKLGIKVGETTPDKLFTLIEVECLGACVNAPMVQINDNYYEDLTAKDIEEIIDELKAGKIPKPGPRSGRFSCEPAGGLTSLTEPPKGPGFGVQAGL
T1 sequence (P28331 24-727): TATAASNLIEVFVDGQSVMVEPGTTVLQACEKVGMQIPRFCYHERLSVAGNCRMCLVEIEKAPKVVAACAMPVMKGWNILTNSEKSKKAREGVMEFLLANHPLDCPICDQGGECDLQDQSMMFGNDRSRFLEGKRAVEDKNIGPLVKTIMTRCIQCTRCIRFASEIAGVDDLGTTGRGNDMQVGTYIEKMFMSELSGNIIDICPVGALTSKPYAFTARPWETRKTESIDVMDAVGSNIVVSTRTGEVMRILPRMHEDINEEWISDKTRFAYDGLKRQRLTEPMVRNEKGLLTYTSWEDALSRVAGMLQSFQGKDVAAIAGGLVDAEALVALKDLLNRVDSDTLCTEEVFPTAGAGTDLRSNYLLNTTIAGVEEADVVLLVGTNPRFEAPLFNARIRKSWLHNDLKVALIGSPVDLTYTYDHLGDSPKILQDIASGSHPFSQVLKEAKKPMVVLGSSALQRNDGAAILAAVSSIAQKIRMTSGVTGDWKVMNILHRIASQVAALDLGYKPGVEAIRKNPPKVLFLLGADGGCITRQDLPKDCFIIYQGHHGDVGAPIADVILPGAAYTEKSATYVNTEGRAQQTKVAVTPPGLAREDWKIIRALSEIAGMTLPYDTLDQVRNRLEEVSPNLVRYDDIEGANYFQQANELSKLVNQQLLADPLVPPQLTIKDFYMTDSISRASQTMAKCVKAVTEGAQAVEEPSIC
T2 sequence (P31040 43-664): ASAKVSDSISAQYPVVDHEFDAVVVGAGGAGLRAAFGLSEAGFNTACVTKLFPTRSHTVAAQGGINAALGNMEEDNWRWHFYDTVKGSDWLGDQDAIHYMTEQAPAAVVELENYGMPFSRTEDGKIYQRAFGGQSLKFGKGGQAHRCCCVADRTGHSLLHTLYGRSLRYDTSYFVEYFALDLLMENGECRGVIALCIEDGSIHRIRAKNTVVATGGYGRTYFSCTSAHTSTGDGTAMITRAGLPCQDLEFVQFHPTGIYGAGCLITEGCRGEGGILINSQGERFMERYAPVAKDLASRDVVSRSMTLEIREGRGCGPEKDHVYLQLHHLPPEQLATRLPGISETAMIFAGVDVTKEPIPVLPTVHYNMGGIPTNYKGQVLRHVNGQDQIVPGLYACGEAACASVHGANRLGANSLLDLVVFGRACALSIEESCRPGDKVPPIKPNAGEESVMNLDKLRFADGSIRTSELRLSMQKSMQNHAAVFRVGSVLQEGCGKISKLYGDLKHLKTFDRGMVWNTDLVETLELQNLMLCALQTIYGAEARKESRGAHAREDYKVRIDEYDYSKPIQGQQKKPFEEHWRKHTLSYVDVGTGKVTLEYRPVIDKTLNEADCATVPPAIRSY
T2 sequence (P21912 29-280): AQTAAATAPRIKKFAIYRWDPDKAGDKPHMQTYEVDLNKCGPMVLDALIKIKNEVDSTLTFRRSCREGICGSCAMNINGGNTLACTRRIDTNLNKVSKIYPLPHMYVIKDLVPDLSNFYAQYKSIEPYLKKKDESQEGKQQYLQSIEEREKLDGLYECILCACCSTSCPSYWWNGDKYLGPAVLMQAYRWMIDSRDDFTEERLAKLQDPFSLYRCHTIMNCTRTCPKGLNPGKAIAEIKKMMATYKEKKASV
T2 sequence (Q99643 30-169): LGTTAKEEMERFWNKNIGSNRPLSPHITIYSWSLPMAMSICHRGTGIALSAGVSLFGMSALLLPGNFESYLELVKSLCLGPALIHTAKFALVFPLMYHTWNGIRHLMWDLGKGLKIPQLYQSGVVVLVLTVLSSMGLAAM
T2 sequence (O14521 57-159): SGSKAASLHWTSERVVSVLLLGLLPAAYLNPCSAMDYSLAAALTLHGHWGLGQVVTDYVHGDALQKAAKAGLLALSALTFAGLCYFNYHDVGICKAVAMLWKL
T3 sequence (P49821 21-464): as the sequence (P49821 21-464) above
T3 sequence (P19404 33-249): as the sequence (P19404 33-249) above
T3 sequence (P28331 24-727): as the sequence (P28331 24-727) above
T4 sequence (P28331 24-727): as above
T4 sequence (P49821 21-464): as the sequence (P49821 21-464) above
T4 sequence (P19404 33-249): as the sequence (P19404 33-249) above

| SMILES | inhibition at 50 µM [2] | inhibition at 100 µM [2] | % Inhibition - complex I [1] | inhibition at 100 µM [1] | other results |
| --- | --- | --- | --- | --- | --- |
| CN(C)CCCN1c2ccccc2Sc2ccc(Cl)cc21 [Chlorpromazine] | 6.6 ± 3.5% | 14.9 ± 2.1% | 20.9 ± 18.1 % | 43.8 ± 17.3% | Effect on complex I driven mitochondrial respiration (in words) [1]: specifically inhibit complex I driven mitochondrial respiration; Effect on respiration through complex II (in words) [2]: no effect |
| NCCc1ccc(O)c(O)c1 [Dopamine] | – | – | – | – | Inhibition of respiration through complex I [3]: 33.3±0.07%; Inhibition of respiration through complex II [4]: not through complex II; Inhibition of respiration through complex III [5]: not through complex II and III; Inhibition by DA in schizophrenic patients relative to control subjects ([6]; EBV transformed lymphocytes): higher by two fold; Inhibition of respiration by DA ([6]; lymphoblasts of control subjects (n=7)): 11.4±7.2%; Inhibition of respiration by DA ([6]; lymphoblasts of schizophrenic patients (n=7)): 26.8±8.6% |
| CNCCC(Oc1ccc(C(F)(F)F)cc1)c1ccccc1 (centres unmarked) [Fluoxetine] | 15 ± 9.2% | 25.3 ± 0.2% | 15.7 ± 25.5% | 29.2 ± 22.7% | – |
| C=C(C)[C@H]1Cc2c(ccc3c2O[C@@H]2COc4cc(OC)c(OC)cc4[C@@H]2C3=O)O1 [rotenone] | – | – | – | – | Effect on NADH ferricyanide reductase activity [7]: no effect; remaining activity at 10 µM [8]: 5 to 15% |

Second part, led by results:

| inhibition at 50 µM [2] | inhibition at 100 µM [2] | SMILES | % Inhibition - complex I [1] | inhibition at 100 µM [1] | other results |
| --- | --- | --- | --- | --- | --- |
| 11 ± 1.2% | 22.1 ± 18% | CN(C)CCCN1c2ccccc2CCc2ccc(Cl)cc21 [Anafranil] | 13.0 ± 11.0% | 32.1 ± 8.8% | – |
| 10.9 ± 1.6% | 2.6 ± 2.4% | CN1CCN(C2=Nc3cc(Cl)ccc3Nc3ccccc32)CC1 [Clozapine] | 31.2 ± 5.6 % | 39.9 ± 20.8% | – |
| 0.7 ± 0.7% | 2.9 ± 1.8% | O=C(CCCN1CCC(O)(c2ccc(Cl)cc2)CC1)c1ccc(F)cc1 [Haloperidol] | 27.2 ± 4.7 % | 47.6 ± 10% | Effect on complex I driven mitochondrial respiration (in words) [1]: specifically inhibit complex I driven mitochondrial respiration; Effect on respiration through complex II (in words) [2]: no effect |
